Experimental findings from patent US8143403B2 (Bristol-Myers Squibb Company, priority 2008, dated 2012) are described below.

Several values for one entry are separate records, joined by “and”; a condition that tells them apart may be missing. Equal entries are not always repeated. Marks after values point to notes of the source that are not given here.

One assay has as its target CGRP receptor complex (Homo sapiens, UniProt O60894+Q16602). Put plainly: Functional antagonism/Schild analysis, CGRP-stimulated cAMP production (HTRF) in SK-N-MC cells. The format is cell-based. As for the experimental part:
Saturation/Scatchard Analysis. […] Saturation data were analyzed using a one site binding equation to estimate apparent equilibrium dissociation constant (Kd) and the maximum number of binding sites (Bmax) (Prizm v4.0, Graphpad). […] Functional Antagonism/Schild analysis. Agonist stimulation of CGRP receptor complex leads to cyclic AMP (adenosine 3′5′-cyclic monophosphate) production via Gs-dependent activation of an adenylate cyclase (Juaneda C et al., TiPS, 2000; 21:432-438). Consequently, CGRP receptor antagonists inhibit CGRP-induced cyclic AMP formation in SK-N-MC cells which natively express the CGRP receptor complex (Doods H et al., Br J Pharmacol, 2000; 129(3):420-423). […] A Schild analysis format was used, which allowed investigation of the mechanism of antagonism. […] Various concentrations of CGRP were added and the cells were allowed to incubate 30 min at room temperature. The cells were lysed with lysis reagent and cAMP concentrations were determined by HTRF according to the manufacturer's instructions. A standard curve using known quantities of cAMP was evaluated in parallel to allow conversion of HTRF ratio to nM cAMP. The resulting curves were then evaluated using a Gaddum/Schild equation individually and with global fitting (Prizm v4.0, Graphpad). […] To obtain a global fit the following parameters were shared (top, bottom, logEC50, Hill slope and pA2) and all curves were fit simultaneously. […] Non-Terminal Method for Assessing In Vivo Efficacy of Small Molecule CGRP-Receptor Antagonists in Mammals Overview. […] Non-human primates (e.g., marmosets) are the only animals known to have human-like CGRP receptor pharmacology conferred by the presence of the specific amino acid residue (Trp74) in their RAMP1 sequence which is responsible for the phenotype of the human receptor (Mallee et al. J Biol Chem 2002 277:14294). […]
A general note: cAMP levels reflect the balance of adenylyl cyclase and phosphodiesterase activity.

Assay [1] relates to CGRP-induced increase in laser Doppler facial blood flow. Put plainly: Inhibition of CGRP-induced increase in laser Doppler facial blood flow in non-human primate. The format is in vivo, common marmoset (Callithrix jacchus). Conditions: pretreat −30 min, hαCGRP 10 μg/kg i.v. As for the experimental part: FIG. 4. […] Data are peak % change from baseline±sem, with each animal serving as its own control.
Saturation/Scatchard Analysis. […] Saturation data were analyzed using a one site binding equation to estimate apparent equilibrium dissociation constant (Kd) and the maximum number of binding sites (Bmax) (Prizm v4.0, Graphpad). […] Functional Antagonism/Schild analysis. Agonist stimulation of CGRP receptor complex leads to cyclic AMP (adenosine 3′5′-cyclic monophosphate) production via Gs-dependent activation of an adenylate cyclase (Juaneda C et al., TiPS, 2000; 21:432-438). Consequently, CGRP receptor antagonists inhibit CGRP-induced cyclic AMP formation in SK-N-MC cells which natively express the CGRP receptor complex (Doods H et al., Br J Pharmacol, 2000; 129(3):420-423). […] A Schild analysis format was used, which allowed investigation of the mechanism of antagonism. […] Various concentrations of CGRP were added and the cells were allowed to incubate 30 min at room temperature. The cells were lysed with lysis reagent and cAMP concentrations were determined by HTRF according to the manufacturer's instructions. A standard curve using known quantities of cAMP was evaluated in parallel to allow conversion of HTRF ratio to nM cAMP. The resulting curves were then evaluated using a Gaddum/Schild equation individually and with global fitting (Prizm v4.0, Graphpad). […] To obtain a global fit the following parameters were shared (top, bottom, logEC50, Hill slope and pA2) and all curves were fit simultaneously. […] Non-Terminal Method for Assessing In Vivo Efficacy of Small Molecule CGRP-Receptor Antagonists in Mammals Overview. […] Non-human primates (e.g., marmosets) are the only animals known to have human-like CGRP receptor pharmacology conferred by the presence of the specific amino acid residue (Trp74) in their RAMP1 sequence which is responsible for the phenotype of the human receptor (Mallee et al. J Biol Chem 2002 277:14294). Since current migraine models primarily use rats (Escott et al. Brain Res 1995 669:93; Williamson et al. Cephalalgia 1997 17:525), or are invasive, terminal procedures in primates (Doods et al. Br J Pharmacol 2000 129:420), a novel non-invasive, survival model in non-human primates for in vivo efficacy assessment of CGRP-receptor antagonists was developed. […] Peptide and small-molecule CGRP-receptor antagonists were used to validate the non-human primate model. […] Animals. Adult male and female common marmosets (Callithrix jacchus) purchased from Harlan and weighing 350-550 g served as subjects. Anesthesia & Surgical Preparation. Animals are anesthetized by isoflurane inhalation in an induction chamber (4-5% rapid induction, maintained with 1-2.5%; Solomon et al., 1999).

Sequence of CGRP receptor complex (Q16602 23-461): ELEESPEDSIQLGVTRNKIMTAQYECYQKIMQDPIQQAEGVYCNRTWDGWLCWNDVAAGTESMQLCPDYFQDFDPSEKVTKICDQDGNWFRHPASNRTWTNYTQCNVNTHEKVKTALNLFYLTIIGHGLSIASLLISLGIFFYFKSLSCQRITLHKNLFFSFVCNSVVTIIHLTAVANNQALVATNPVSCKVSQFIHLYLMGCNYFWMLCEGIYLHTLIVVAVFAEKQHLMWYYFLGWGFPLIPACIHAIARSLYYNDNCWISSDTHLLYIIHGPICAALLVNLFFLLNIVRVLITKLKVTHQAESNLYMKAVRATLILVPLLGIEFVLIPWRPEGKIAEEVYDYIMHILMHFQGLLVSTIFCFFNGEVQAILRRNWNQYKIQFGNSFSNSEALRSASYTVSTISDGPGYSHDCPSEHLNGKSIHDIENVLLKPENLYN
Sequence of CGRP receptor complex (O60894 27-148): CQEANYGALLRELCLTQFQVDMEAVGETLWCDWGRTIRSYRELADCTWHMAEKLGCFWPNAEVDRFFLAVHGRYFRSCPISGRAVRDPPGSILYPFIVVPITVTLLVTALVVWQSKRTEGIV

On to `O=C(O[C@@H]1CC[C@@H](c2cccc(F)c2F)Cc2cccnc21)N1CCC(n2c(=O)[nH]c3ncccc32)CC1` [Example 20], for which the “effect on maximal CGRP response (cAMP production)” value at CGRP receptor complex (15 min pre-incubation, 0.3 to 24 nM antagonist) was “without altering the maximal response”. For the same molecule, the Kb (as a rule, the equilibrium dissociation constant of an antagonist, usually derived from a functional assay) on CGRP receptor complex (global Gaddum/Schild fit, Schild slope of 1, two datasets) is 0.247 ± 0.04 nM. Besides, the Schild slope on CGRP receptor complex (global fits with unconstrained Schild slope, two separate experiments) was 1.17 and 0.8. In addition, the % Inhibition (usually the relative decrease from the control value, in per cent) in assay [1] (0.1 mg/kg s.c., 15 min) is on record as 9.9%; in assay [1] (0.1 mg/kg s.c., 60 min), −6.7%; in assay [1] (0.1 mg/kg s.c., 105 min), −4.9%; in assay [1] (0.3 mg/kg s.c., 15 min) it was 28.8%; in assay [1] (0.3 mg/kg s.c., 60 min) it was 27.6* %; in assay [1] (0.3 mg/kg s.c., 105 min), 41.2* %. In addition, the “% Inhibition” value in assay [1] (3 mg/kg s.c., 15 min) is on record as 26.5%; in assay [1] (3 mg/kg s.c., 60 min), 36.7* %; in assay [1] (3 mg/kg s.c., 105 min), 39.0* %; in assay [1] (7 mg/kg s.c., 15 min), 25.1%; in assay [1] (7 mg/kg s.c., 60 min) it was 53.9* %; in assay [1] (7 mg/kg s.c., 105 min) it was 70.0* %.
